# Measured values taken from patent publication US4710578A, “Isothiuronium salts” (Peremartoni Vegyipari Vallalat, priority 1984, dated 1987).
# Counter-ions that a name gives are not always drawn. Like-named read-outs stand apart in the source and are kept apart here.
# Key:
# [1] = test system: neutrophylic granulocytes and limphocytes; conditions: mouse, in vivo, po
# [2] = test system: neutrophilic granulocytes, lymphocytes and macrophages; assay: Preliminary rapid test: immunostimulant effect; format: in vivo, CFLP male mice; conditions: oral, one-tenth of LD50; 24 hours
# tumor cells = assay: Testing of antitumor effect (overall)
# NK-yl ascites tumor = assay: Combinations with known cytostatic agents in NK-ly ascites tumor; format: in vivo, CFLP mice; conditions: with cyclophosphamide, carnomustine, degranol, dibromo dulcitol or dibromo mannitol
# human lymphocytes [3] = assay: Mitogen-induced blastos transformation (PHA, Con A); format: cell-based
# Description: Lymphocytes were cultivated in a TC 199 liquid nutrient medium completed by 10% decomplemented calf serum, antibiotics and […] HEPES (Serva). 200 μl of a cell suspension comprising 2.10^5 lymphocytes were placed on a microplate (manufacturer: Sterilin Great Britain); five parallels were carried out each.
# 2 and 10 μg/ml, respectively of Phytohaemagglutinine (Leucoagglutinine; manufacturer Pharmacie Sweden) and 25 μg/ml of Concanavalin A (Carbiochem) were added to the cultures; the above values relate to final concentration. The cultures were cultivated at 37° C. for 72 hours. Eight hours before the termination of the end of the cultivating period 0.5 μCi ^3 H thymidine (Chemapol. Czechoslovakia) was added to the samples. Incubation was stopped by freezing the cultures. After melting the samples were filtered on an automatic harvester (Dynatech). The radioactivity of the samples was measured in a scintillation counter. The activity was expressed as c.p.m. (Tables IV and V).
# [4] = test system: human polymorphonuclear leucocytes; assay: Direct /random/ migration of human polymorphonuclear leucocytes on agarose microdrops; format: cell-based; conditions: seven healthy controls, ± S.E.M.
# Description: Spontaneous (random) migration of leukocytes was measured on agarose microdrops according to the method of McCoy et al (1977) by carrying out some minor modifications (Kalmar and Gergely, 1982).
# […] agarose drops (0.2%) were placed on migration plates (Greiner, German Federal Republic). TC 199 liquid nutrient medium was added and the plates were air-tightly closed. After 24 hours the migration area were measured under a stereomicroscope. The migration area were expressed in mm^2.
# human lymphocytes [5] = assay: ADCC, 51Cr release from chicken erythrocytes; format: cell-based; conditions: for Cytotoxicity index, ADCC: 5:1, 4 hours, n=10, ± S.E.
# Description: (§1) Lymphocytes were separated on Ficoll-Uromiro (Boyum 1968) gradient from the venal blood of healthy donors and patients suffering from malignant lymphoma and metastatizing solid tumours, respectively. When selecting the patients belonging to the latter group, the decreased ADCC and NK activity was taken into consideration. The phagocytes were removed by treatment with iron powder and a magnet.
# ADCC was determined according to the method of Perlmann and Perlmann (1970) with minor modifications (Lang et al, 1981). Chicken erythrocytes labelled with 10^5 51 Cr and coated with anti-chicken erythrocyte rabbit-serum were incubated with the lymphocytes for 4 hours at 37° C. The reaction having been stopped the activity of the supernatant of the centrifuged cells was determined in a gamma-counter. The rate of chrome-release was expressed as the cytotoxicity index (CI %). This value was calculated as described in one of our earlier publications (Lang et al., 1980)--(see Table I).
# Effect on ADDC. Cytotoxicity index /%/.
# Ratio of effector cells; aimed cells = 5:1. Incubation time 4 hours.
# human lymphocytes [6] = assay: NK activity, 51Cr release from K-562 tumor cells; format: cell-based; conditions: for Cytotoxicity index, NK activity: 50:1, 4 hours, ± S.E.
# Description: as §1
# NK activity was determined by the method of Jondal and Pross (1975) by using minor modifications (Lang et al, 1981). K-562 tumor cells labelled by ^51 Cr were incubated with effector cells in a TC 199 liquid nutrient medium comprising 10% of decomplemented calf serum. The reaction having been stopped the radioactivity of the superntant of the centrifuged cells (chrome release) was counted in a gamma-counter. The killing of the tumor cells (cytotoxicity index %) was expressed as the difference of the test release and spontaneous release.
# Ratio of effector cells: aimed cells = 50:1.
# Incubation time 4 hours.
# [7] = in vivo, 24 h
# NK-ly-ascites lymphoma = NK-ly-ascites lymphoma in vivo; design: species or system CFLP male mice
# [8] = Decreased ADCC, 6,7 × 10^-8 mole
# [9] = Decreased ADCC, 6,7 × 10^-9 mole
# [10] = Decreased ADCC, 6,7 × 10^-10 mole
compound,measurement,setting,value
"C=CCSC(=NCC)NC(=N)N [Example 34, N-aminoiminomethyl-N'-ethyl-S-allyl-isothiuronium chloride]",Toxic effect,[1],0
same,LD50 at 24 h,in vivo; ip,84 ± 7.6 mg/kg
same,LD50 at 24 h,in vivo; po,780 ± 62 mg/kg
same,Immunostimulant effect,[2],medium (Medium effect is observed if the increase of cell number or activity over the control amounts to 20%)
same,Antitumor effect,tumor cells,outstanding antitumor effect
"C=C(C)CSC(=NC(C)C)NC(=N)N [Example 36, N-aminoiminomethyl-N'-isopropyl-S-methallyl-isothiuronium chloride]",Antitumor effect,tumor cells,outstanding antitumor effect
"N=C(N)NC(=N)SCCCBr [Example 28, N-aminoiminomethyl-S-(3-bromo-propyl)-isothiuronium bromide]",Toxic effect,[1],0
same,LD50 at 24 h,in vivo; po,980 ± 640 mg/kg
same,Antitumor effect of combination vs cytostatic agent alone,NK-yl ascites tumor,the antitumor effect was strengthened
same,Immunodepression of combination vs cytostatic agent alone,NK-yl ascites tumor,immunodepression decreased
same,Immunostimulant effect,[2],weak
same,Antitumor effect,tumor cells,outstanding antitumor effect
"C=CCSC(=N)NC(=N)N [Compound A, N-/aminoiminomethyl/-S-allyl-isothiuronium salts (halogenides)]","Blastos transformation, average c.p.m.","human lymphocytes [3]; healthy controls n=6, Con A 25 μg/ml, dose 0.1 μg/ml",10564 c.p.m.
same,"Blastos transformation, average c.p.m.","human lymphocytes [3]; healthy controls n=6, Con A 25 μg/ml, dose 1.0 μg/ml",14089 c.p.m.
same,"Blastos transformation, average c.p.m.","human lymphocytes [3]; healthy controls n=6, Con A 25 μg/ml, dose 10.0 μg/ml",17038 c.p.m.
same,"Blastos transformation, average c.p.m.","human lymphocytes [3]; healthy controls n=6, PHA 2 μg/ml, dose 0.1 μg/ml",22233 c.p.m.
same,"Blastos transformation, average c.p.m.","human lymphocytes [3]; healthy controls n=6, PHA 2 μg/ml, dose 1.0 μg/ml",23156 c.p.m.
same,"Blastos transformation, average c.p.m.","human lymphocytes [3]; healthy controls n=6, PHA 2 μg/ml, dose 10.0 μg/ml",25404 c.p.m.
same,"Blastos transformation, average c.p.m.","human lymphocytes [3]; healthy controls n=6, PHA 10 μg/ml, dose 0.1 μg/ml",29969 c.p.m.
same,"Blastos transformation, average c.p.m.","human lymphocytes [3]; healthy controls n=6, PHA 10 μg/ml, dose 1.0 μg/ml",33826 c.p.m.
same,"Blastos transformation, average c.p.m.","human lymphocytes [3]; healthy controls n=6, PHA 10 μg/ml, dose 10.0 μg/ml",33790 c.p.m.
same,"Blastos transformation, average c.p.m.","human lymphocytes [3]; patients of decreased reactivity /tumor and SLE/ n=6, Con A 25 μg/ml, dose 0.1 μg/ml",1097 c.p.m.
same,"Blastos transformation, average c.p.m.","human lymphocytes [3]; patients of decreased reactivity /tumor and SLE/ n=6, Con A 25 μg/ml, dose 1.0 μg/ml",935 c.p.m.
same,"Blastos transformation, average c.p.m.","human lymphocytes [3]; patients of decreased reactivity /tumor and SLE/ n=6, Con A 25 μg/ml, dose 10.0 μg/ml",1023 ± 361 c.p.m.
same,"Blastos transformation, average c.p.m.","human lymphocytes [3]; patients of decreased reactivity /tumor and SLE/ n=6, PHA 2 μg/ml, dose 0.1 μg/ml",2877 c.p.m.
same,"Blastos transformation, average c.p.m.","human lymphocytes [3]; patients of decreased reactivity /tumor and SLE/ n=6, PHA 2 μg/ml, dose 1.0 μg/ml",4344 c.p.m.
same,"Blastos transformation, average c.p.m.","human lymphocytes [3]; patients of decreased reactivity /tumor and SLE/ n=6, PHA 2 μg/ml, dose 10.0 μg/ml",4716 ± 1287 c.p.m.
same,"Blastos transformation, average c.p.m.","human lymphocytes [3]; patients of decreased reactivity /tumor and SLE/ n=6, PHA 10 μg/ml, dose 0.1 μg/ml",5802 c.p.m.
same,"Blastos transformation, average c.p.m.","human lymphocytes [3]; patients of decreased reactivity /tumor and SLE/ n=6, PHA 10 μg/ml, dose 1.0 μg/ml",6323 c.p.m.
same,"Blastos transformation, average c.p.m.","human lymphocytes [3]; patients of decreased reactivity /tumor and SLE/ n=6, PHA 10 μg/ml, dose 10.0 μg/ml",6968 ± 1669 c.p.m.
same,Migration area,"[4]; 0.1 μg/ml, non significant",10.51 mm^2
same,Migration area,"[4]; 1.0 μg/ml, p < 0.01",12.25 ± 1.58 mm^2
same,Migration area,"[4]; 10.0 μg/ml, p < 0.01",11.24 ± 1.69 mm^2
same,Change of ADCC cytotoxicity index vs control,human lymphocytes [5]; [8],+264%
same,"Cytotoxicity index, ADCC",human lymphocytes [5]; [8],10.2 ± 2.7%
same,Change of ADCC cytotoxicity index vs control,human lymphocytes [5]; [9],+175%
same,"Cytotoxicity index, ADCC",human lymphocytes [5]; [9],7.7 ± 1.9%
same,Change of ADCC cytotoxicity index vs control,human lymphocytes [5]; [10],+126%
same,"Cytotoxicity index, ADCC",human lymphocytes [5]; [10],6.35 ± 1.7%
same,Change of ADCC cytotoxicity index vs control,"human lymphocytes [5]; Normal ADCC, 6,7 × 10^-8 mole",+62%
same,"Cytotoxicity index, ADCC","human lymphocytes [5]; Normal ADCC, 6,7 × 10^-8 mole",68.2 ± 5.3%
same,Change of ADCC cytotoxicity index vs control,"human lymphocytes [5]; Normal ADCC, 6,7 × 10^-9 mole",+52%
same,"Cytotoxicity index, ADCC","human lymphocytes [5]; Normal ADCC, 6,7 × 10^-9 mole",64 ± 5.8%
same,Change of ADCC cytotoxicity index vs control,"human lymphocytes [5]; Normal ADCC, 6,7 × 10^-10 mole",+39%
same,"Cytotoxicity index, ADCC","human lymphocytes [5]; Normal ADCC, 6,7 × 10^-10 mole",58.5 ± 5.2%
same,Change of NK cytotoxicity index vs control,"human lymphocytes [6]; Decreased NK, 6.7 × 10^-9 mole/ml",+68%
same,"Cytotoxicity index, NK activity","human lymphocytes [6]; Decreased NK, 6.7 × 10^-9 mole/ml, n=7",25.3 ± 3.2%
same,Change of NK cytotoxicity index vs control,"human lymphocytes [6]; Decreased NK, 6.7 × 10^-10 mole/ml",+43%
same,"Cytotoxicity index, NK activity","human lymphocytes [6]; Decreased NK, 6.7 × 10^-10 mole/ml, n=7",21.6 ± 3.0%
same,Change of NK cytotoxicity index vs control,"human lymphocytes [6]; Decreased NK, third dose column (printed 6.7 × 10^-31 8)",+113%
same,"Cytotoxicity index, NK activity","human lymphocytes [6]; Decreased NK, third dose column (printed 6.7 × 10^-31 8) mole/ml, n=7",32.2 ± 3.2%
same,Change of NK cytotoxicity index vs control,"human lymphocytes [6]; Normal NK, 6.7 × 10^-9 mole/ml",+32%
same,"Cytotoxicity index, NK activity","human lymphocytes [6]; Normal NK, 6.7 × 10^-9 mole/ml, n=8",43.4 ± 2.7%
same,Change of NK cytotoxicity index vs control,"human lymphocytes [6]; Normal NK, 6.7 × 10^-10 mole/ml",+25%
same,"Cytotoxicity index, NK activity","human lymphocytes [6]; Normal NK, 6.7 × 10^-10 mole/ml, n=8",41 ± 2.9%
same,Change of NK cytotoxicity index vs control,"human lymphocytes [6]; Normal NK, third dose column (printed 6.7 × 10^-31 8)",+45%
same,"Cytotoxicity index, NK activity","human lymphocytes [6]; Normal NK, third dose column (printed 6.7 × 10^-31 8) mole/ml, n=8",47.6 ± 1.4%
"CC(C)N=C(NC(=N)N)SCCCCl [Example 35, N-aminoiminomethyl-N'-isopropyl-S-(3-chloropropyl)-isothiuronium bromide]",Antitumor effect,tumor cells,outstanding antitumor effect
"C=CCSC(=NC1CCCCC1)NC(=N)N [Example 22, N-Aminoiminomethyl-N'-Cyclohexyl-S-Allyl-Isothiuronium Chloride]",Toxic effect,[1],0
same,LD50,[7]; ip,40 ± 6 mg/kg
same,LD50,[7]; po,400 ± 38 mg/kg
same,LD50 at 24 h,in vivo; ip,65 ± 5.1 mg/kg
same,LD50 at 24 h,in vivo; po,450 ± 51 mg/kg
same,Immunostimulant effect,[2],weak
same,Activity against NK-ly-ascites tumor,NK-ly-ascites lymphoma; concentration below one-tenth of the LD50 value,active agains Nk-ly-ascites tumor in a concentration below one-tenth of the LD50 value
same,Survival rate and lifetime,NK-ly-ascites lymphoma; dose-dependant,increase survival rate and lifetime in a dose-dependant manner
same,Cytotoxical dose range,"NK-ly-ascites lymphoma; mouse, in vivo",40 to 160 mg/kg
"C=C(C)CSC(=NC1CCCCC1)NC(=N)N [Example 38, N-aminoiminomethyl-N'-cyclohexyl-S-methallyl-isothiuronium chloride]",Antitumor effect,tumor cells,outstanding antitumor effect
"N=C(N)NC(=N)SCCCCl [Example 15, N-Aminoiminomethyl-S-(3-Chloropropyl)-Isothiuronium Bromide]",Toxic effect,[1],0
same,LD50 at 24 h,in vivo; po,1210 ± 180 mg/kg
same,Antitumor effect of combination vs cytostatic agent alone,NK-yl ascites tumor,the antitumor effect was strengthened
same,Immunodepression of combination vs cytostatic agent alone,NK-yl ascites tumor,immunodepression decreased
same,Immunostimulant effect,[2],weak
same,Antitumor effect,tumor cells,outstanding antitumor effect
